Data from patent US8604059B2, “Thioxanthene derivatives for the treatment of infectious diseases” (BKG Pharma APS, priority 2009, dated 2013).
≈ marks a conversion by molar mass, not a printed value.

Legend:
Streptococci = assay: MIC on multiresistant and susceptible clinical isolates (Table 1b); type: cell-based; conditions: 8 multiresistant and 8 susceptible isolates
Experimental: (§1) Cell growth was tested using the Minimal Inhibitory Concentration (MIC) susceptibility tests by use of the microdilution broth method in accordance to the NCCLS Guidelines (NCCLS Guidelines, Methods for Dilution Antimicrobial Susceptibility Tests for Bacteria That Grow Aerobically; Approved Standard, Sixth Edition, Volume 23; Number 2). The minimum inhibitory concentration (MIC), is defined as the lowest concentration of drug which inhibits growth of the test organism, in the sense that no visible growth is detected (total inhibition of growth). In example 2, MIC of the compounds used on fungal microorgansims was determined from the IC90 measurements according to NCCLS Guidelines.
(§2) A log phase culture of bacteria was diluted with fresh pre-warmed Mueller-Hinton medium and adjusted to a defined OD at 600 nm in order to give a final concentration of 1×10^4-5 bacteria/ml medium. The bacterial culture was transferred to microtiter-plates and culture was added to each well. Drug was added to the bacterial culture in the wells as two-fold dilution series of drug in order to give final concentrations ranging from 0.03 to 128 μg/ml. Trays were incubated at 37° C. by shaking in a robot analyzer, PowerWavex, software KC^4′ Kebo. Lab, Copenhagen, for 16 h and optical densities were measured at 600 nm during the incubation time in order to record growth curves. Wells containing bacterial culture without drug were used as controls to ensure correct inoculum size and bacterial growth during the incubation. Cultures were tested in order to detect contaminations. Each experiment was repeated in triplicate. MIC values represent the mean values of two separate triplicate experiments. Intra- and interassay variation was <5%.
(§3) Clinically relevant human bacterial isolates of Staphylococci, Streptococci, Micrococci and Gram negative species was cultured and assayed as described above for susceptibility towards the compounds listed in table 1b.

[1] = tested on: Staphylococci, Micrococci. Including MRSA; assay: as above; type: cell-based; conditions: Micrococci incl. MRSA, 8 multiresistant and 8 susceptible isolates
Experimental: as §1, §2, §3

Gram negative sp. = assay: as above; type: cell-based; conditions: 8 multiresistant and 8 susceptible isolates
Experimental: as §1, §2, §3

Enterococci sp. = assay: MIC on multiresistant and susceptible clinical isolates of Enterococci (Table 2); type: cell-based, Enterococcus faecalis and Enterococcus faecium; conditions: 8 multiresistant (VanA, VanB, HLAR, BLR,CR) and 8 susceptible isolates
Experimental: as §1
as §2, with “Wells containing bacterial culture without drug were used as controls to ensure correct inoculum size and bacterial growth during the incubation. Cultures were tested in order to detect contaminations. Each experiment was repeated in triplicate. MIC values represent the mean values of two separate triplicate experiments. Intra- and interassay variation was <5%.” left out

[2] = tested on: E. faecalis MDR/VRE clinical isolates; assay: FIC index, synergy with antibiotics (Table 4a); type: cell-based, Enterococcus faecalis; conditions: 8 MDR/VRE E. faecalis, mean, compound at ¼ of MIC
Experimental: (§4) The effect of the compounds was tested according to the methods described in WO2005/105145. In brief, cell growth was tested using the MIC susceptibility tests by use of the microdilution broth method in accordance to the NCCLS Guidelines (NCCLS Guidelines, Methods for Dilution Antimicrobial Susceptibility Tests for Bacteria That Grow Aerobically; Approved Standard, Sixth Edition, Volume 23; Number 2).
(§5) The Fractional Inhibitory Concentration (FIC) index were calculated for each compound as described in WO2005/105145. Synergy was defined for Fractional Inhibitory Concentration (FIC) indices less than 0.5
Enterococcus faecalis: 8 multidrug resistant in vivo-selected clinical isolates. […] Expressing change in the cell wall precursor target as a major resistance mechanism (VanA gene expression).

Candida albicans = assay: Synergy with fluconazole, broth microdilution NCCLS M27-A (Table 10); type: cell-based
Experimental: The isolates were subcultured for 24 h on Sabouraud glucose agar before susceptibility testing. Broth microdilution tests were performed according to NCCLS document M27-A (Ref: National Commitee for Clinical Laboratory Standards. (1997). Reference Method for Broth Dilution Antifungal Susceptibility Testing of Yeasts: Approved Standard M27-A. NCCLS, Wayne, Pa.) Microtitre plates were read spectrophotometrically at 530 nm, after mixing the wells by pipetting to resuspend yeast sediments. […] The Fractional Inhibitory Concentration (FIC) was calculated for the anti-infective agent alone and in combination with compound 3 and 4 (see table 4) as described above. Synergy was defined as a FIC index of <0.5.

S. aureus O11 = assay: Emergence of in vitro-selected single-step ciprofloxacin resistance; type: cell-based; conditions: ciprofloxacin 1 μg per ml (two times the MIC); inhibitor 1 μg/ml; 24 h
Experimental: The frequency of mutant selection was determined to be 3×10−8 by comparing the number of colonies that grew on plates containing the anti-infective agent with the number of colonies obtained upon plating appropriate dilutions in the absence of anti-infective agents.

[3] = tested on: E. coli MDR clinical isolates; assay: FIC index, synergy with antibiotics (Table 4a); type: cell-based; conditions: 8 MDR E. coli, mean, compound at ¼ of MIC
Experimental: as §4, §5
E. coli: 8 in vivo-selected multidrug resistant clinical isolates of E. coli. Resistant to tetracycline, beta-lactams, fluoroquinolones, chloramphenicol and aminoglycoside

strain IIIB of HIV-1 = assay: Inhibition of HIV-1 replication in MT4 cells, MTT assay; type: cell-based
Experimental: The enhancing effect of compound 3 on anti-viral agents was studied by checkerboard combination studies exposing HIV infected cells to 0-3 μM anti-viral agent in the absence or presence of compound 3 in concentrations from 0 to 6 μM. Each experiment was repeated in tripleduplicate. MIC values represent the mean values of two separate experiments.
The HIV-1 strain HTLV-IIIB were propagated in H9 cells at 37° C., 5% CO2 using RPMI 1640 with 10% heat-inactivated foetal calf serum (FCS) and antibiotics (growth medium). Culture supernatant was filtered ([…]), aliquotted, and stored at −80° C. until use. The HIV-1 strain was obtained from NIH AIDS Research and Reference Program.
Compounds were examined for possible antiviral activity against strain IIIB of HIV-1 using MT4 cells as target cells. MT4 cells were incubated with virus (0.005 MOI) and growth medium containing the test dilutions of compound(s) for six days in parallel with virus-infected and uninfected control cultures without compound added. Expression of HIV in the cultures was indirectly quantified using the MTT assay as previously described. Compounds mediating less than 30% reduction of HIV expression were considered without biological activity. Compounds were tested in parallel for cytotoxic effect in uninfected MT4 cultures containing the test dilutions of compound as described above. Cultures for test of both antiviral activity and cytotoxic effect were set up in tripleduplicates, […] per culture in micro titre plates. A 30% inhibition of cell growth relative to control cultures was considered significant. The 50% inhibitory concentration was determined by interpolation from the plots of percent inhibition versus concentration of compound.
EC50 is defined as the effective concentration that inhibits 50% of viral production, 50% of viral infectivity, or 50% of the virus-induced cytopathic effect.

In the case of `Clc1ccc2c(c1)/C(=C/CCC1CCNCC1)c1ccccc1S2` [Compound 3], the “MIC Mean” value (Streptococci) is reported as 0.25 µg/mL (≈ 0.702 µM), the “MIC Mean” value [1] is reported as 0.25 µg/mL (≈ 0.702 µM) and the “MIC Mean” value (Gram negative sp.) is reported as 3 µg/mL (≈ 8.43 µM). For the same compound, the “MIC Mean (range)” value (Enterococci sp.) was 0.125 (0.06-0.125) μ/ml, the FIC index ([2]; with Ciprofloxacin) was 0.25 and the FIC index ([2]; with Dicloxacillin) was 0.25. For the same compound, the MIC (Candida albicans; Candida albicans, compound alone, read-out: MIC Compound) was 1 µg/mL, the FIC index (Candida albicans; in combination with fluconazole) was 0.28 and the “Frequency of emergence of resistance” value (S. aureus O11) was <1 × 10^−10. It also gave an FIC index ([3]; with Ampicillin) of 0.44, an FIC index ([3]; with Ciprofloxacin) of 0.44 and an FIC index ([3]; with Gentamycin) of 0.44. The FIC index ([3]; with Tetracycline) was 0.44, the EC50 (strain IIIB of HIV-1; Human immunodeficiency virus 1, IIIB, 144 h, single agent, MT4 cells, six days, read-out: EC50) was over 4 µM and the “Antiviral effect alone” value (strain IIIB of HIV-1; at the concentrations used) was “no antiviral or cytotoxic effect”. For the same compound, the “Enhancement of the antiviral effect of AZT” value (strain IIIB of HIV-1; combination of compound 3 and AZT) was 5 time.
